Measurements published in PubChem BioAssay (NCI).
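Briefly, cells in 96-well plates were exposed to five compound concentrations for 48 h, and endpoints were estimated by linear interpolation. The concentration for 50% growth inhibition is given as GI50. At the TGI there is no net growth.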

Columns and labels:
Assay in all cases: NCI anticancer screen, dose series, 48 h
SNB-19 CNS = test system: SNB-19 CNS
CAKI-1 renal = test system: CAKI-1 renal
HS 578T breast = test system: HS 578T breast
OVCAR-5 ovarian = test system: OVCAR-5 ovarian
NCI-H460 lung = test system: NCI-H460 lung
ACHN renal = test system: ACHN renal
COLO 205 colon = test system: COLO 205 colon
SNB-75 CNS = test system: SNB-75 CNS
M14 melanoma = test system: M14 melanoma
UACC-257 melanoma = test system: UACC-257 melanoma
UO-31 renal = test system: UO-31 renal
KM12 colon = test system: KM12 colon
SF-295 CNS = test system: SF-295 CNS
K-562 leukemia = test system: K-562 leukemia
HT29 colon = test system: HT29 colon
IGROV1 ovarian = test system: IGROV1 ovarian
MOLT-4 leukemia = test system: MOLT-4 leukemia
OVCAR-8 ovarian = test system: OVCAR-8 ovarian
HCT-15 colon = test system: HCT-15 colon
HOP-62 NSCLC = test system: HOP-62 NSCLC
OVCAR-4 ovarian = test system: OVCAR-4 ovarian
HOP-92 NSCLC = test system: HOP-92 NSCLC
NCI-H23 lung = test system: NCI-H23 lung
SW-620 colon = test system: SW-620 colon
SF-268 CNS = test system: SF-268 CNS
SK-MEL-2 melanoma = test system: SK-MEL-2 melanoma
SK-OV-3 ovarian = test system: SK-OV-3 ovarian
TK-10 renal = test system: TK-10 renal
HCT-116 colon = test system: HCT-116 colon
MCF7 breast = test system: MCF7 breast
MALME-3M melanoma = test system: MALME-3M melanoma
OVCAR-3 ovarian = test system: OVCAR-3 ovarian
DU-145 prostate = test system: DU-145 prostate
MDA-MB-231 breast = test system: MDA-MB-231 breast
786-0 renal = test system: 786-0 renal
NCI/ADR-RES ovarian = test system: NCI/ADR-RES ovarian
RPMI-8226 leukemia = test system: RPMI-8226 leukemia
RXF 393 renal = test system: RXF 393 renal
T-47D breast = test system: T-47D breast
HCC-2998 colon = test system: HCC-2998 colon
PC-3 prostate = test system: PC-3 prostate
MDA-MB-435 = test system: MDA-MB-435

Compound: CNc1ccc(C(=O)CC(O)CCC(C)C2OC(=O)CC(O)CC(=O)CC(O)CC(O)CC(O)CC(O)CC3(O)CC(O)C(C(=O)NCCN(C)C)C(CC(OC4OC(C)C(O)C(NC(=O)CN5CCN(CCO)CC5)C4O)/C=C/C=C/C=C/C=C\C=C/C=C/C=C/C2C)O3)cc1 (configuration not stated)
- GI50 (SNB-19 CNS): 1620 nM
- TGI (SNB-19 CNS): > 50000 nM
- GI50 (CAKI-1 renal): 192 nM
- TGI (CAKI-1 renal): > 18700 nM
- GI50 (HS 578T breast): > 50000 nM
- TGI (HS 578T breast): > 50000 nM
- GI50 (OVCAR-5 ovarian): 3590 nM
- TGI (OVCAR-5 ovarian): > 30600 nM
- GI50 (NCI-H460 lung): 242 nM
- TGI (NCI-H460 lung): 1740 nM
- GI50 (ACHN renal): 1120 nM
- TGI (ACHN renal): 2440 nM
- GI50 (COLO 205 colon): 508 nM
- TGI (COLO 205 colon): 1810 nM
- GI50 (SNB-75 CNS): > 22300 nM
- TGI (SNB-75 CNS): > 50000 nM
- GI50 (M14 melanoma): 494 nM
- TGI (M14 melanoma): 1510 nM
- GI50 (UACC-257 melanoma): 935 nM
- TGI (UACC-257 melanoma): 2790 nM
- GI50 (UO-31 renal): 2170 nM
- TGI (UO-31 renal): > 50000 nM
- GI50 (KM12 colon): 165 nM
- TGI (KM12 colon): 490 nM
- GI50 (SF-295 CNS): 706 nM
- TGI (SF-295 CNS): 1640 nM
- GI50 (K-562 leukemia): 163 nM
- TGI (K-562 leukemia): 1350 nM
- GI50 (HT29 colon): 931 nM
- TGI (HT29 colon): > 11600 nM
- GI50 (IGROV1 ovarian): > 50000 nM
- TGI (IGROV1 ovarian): > 50000 nM
- GI50 (MOLT-4 leukemia): 424 nM
- TGI (MOLT-4 leukemia): > 21400 nM
- GI50 (OVCAR-8 ovarian): 2500 nM
- TGI (OVCAR-8 ovarian): > 50000 nM
- GI50 (HCT-15 colon): 2920 nM
- TGI (HCT-15 colon): > 50000 nM
- GI50 (HOP-62 NSCLC): 1170 nM
- TGI (HOP-62 NSCLC): 6210 nM
- GI50 (OVCAR-4 ovarian): 1650 nM
- TGI (OVCAR-4 ovarian): > 17400 nM
- TGI (HOP-92 NSCLC): > 50000 nM
- GI50 (NCI-H23 lung): 14800 nM
- TGI (NCI-H23 lung): 47300 nM
- GI50 (SW-620 colon): 728 nM
- TGI (SW-620 colon): > 50000 nM
- GI50 (SF-268 CNS): 193 nM
- TGI (SF-268 CNS): > 50000 nM
- GI50 (SK-MEL-2 melanoma): 19900 nM
- TGI (SK-MEL-2 melanoma): > 50000 nM
- GI50 (SK-OV-3 ovarian): 2380 nM
- TGI (SK-OV-3 ovarian): > 50000 nM
- GI50 (TK-10 renal): 143 nM
- GI50 (HCT-116 colon): 546 nM
- TGI (HCT-116 colon): 2130 nM
- GI50 (MCF7 breast): 219 nM
- TGI (MCF7 breast): > 50000 nM
- GI50 (MALME-3M melanoma): 96.6 nM
- TGI (MALME-3M melanoma): 300 nM
- GI50 (OVCAR-3 ovarian): 768 nM
- TGI (OVCAR-3 ovarian): 3030 nM
- GI50 (DU-145 prostate): 161 nM
- TGI (DU-145 prostate): 610 nM
- GI50 (MDA-MB-231 breast): 832 nM
- TGI (MDA-MB-231 breast): 2910 nM
- GI50 (786-0 renal): 197 nM
- TGI (786-0 renal): > 50000 nM
- GI50 (NCI/ADR-RES ovarian): 2070 nM
- TGI (NCI/ADR-RES ovarian): 14200 nM
- GI50 (RPMI-8226 leukemia): > 50000 nM
- TGI (RPMI-8226 leukemia): > 50000 nM
- GI50 (RXF 393 renal): > 50000 nM
- TGI (RXF 393 renal): > 50000 nM
- GI50 (T-47D breast): 1080 nM
- TGI (T-47D breast): > 50000 nM
- GI50 (HCC-2998 colon): 1910 nM
- TGI (HCC-2998 colon): 4260 nM
- GI50 (PC-3 prostate): 296 nM
- TGI (PC-3 prostate): > 50000 nM
- GI50 (MDA-MB-435): 692 nM
- TGI (MDA-MB-435): 1910 nM
